Reference: paper PMC7680425 (Cell chemical biology, 2020)

Assays:
[1] = test system: PfROM4; test: Merozoite adhesin shedding assay: EBA175 shedding by PfROM4; assay type: cell-based, P. falciparum; details: 10μM RiKa (p=0.0014) or 25mM EGTA, 90 min at 37°C
[2] = test system: PfROM4; assay type: cell-based, P. falciparum; details: transfected HEK293T cells

Molecule	shedding of EBA175 by PfROM4 from free merozoites [1]	inhibition of EBA175 processing by PfROM4 [2]
O=C(O)CN(CCOCCOCCN(CC(=O)O)CC(=O)O)CC(=O)O [EGTA]	did not inhibit	–
Ac-KRFRSMQYSA-CHO (Ac-KRFRSMQYSA-aldehyde; SMILES CSCC[C@H](NC(=O)[C@H](CO)NC(=O)[C@H](CCCNC(=N)N)NC(=O)[C@H](Cc1ccccc1)NC(=O)[C@H](CCCNC(=N)N)NC(=O)[C@H](CCCCN)NC(C)=O)C(=O)N[C@@H](CCC(N)=O)C(=O)N[C@@H](Cc1ccc(O)cc1)C(=O)N[C@@H](CO)C(=O)N[C@@H](C)C=O)	–	abrogated PfROM4 inhibition
